What was measured:
[1] = Solid stability test (purity by liquid chromatography, XRD, TG-DTA after storage); type: physicochemical; details: 1 month at 40° C. (open system), 40° C. (humidity, 75%), or 60° C. (open system)
Experimental: An examination by liquid chromatography was made under the following test conditions.
Apparatus: Hitachi L-2455
Mobile phase A: 10 mM aqueous Na2HPO4 solution (pH, 6.5)
Mobile phase B: acetonitrile
Column: GL Science Inertsil ODS-3; 4.6×150 mm; S=5 μm
Measuring wavelength: 220 nm
(open system), 40° C. (humidity, 75%), or 60° C. (open system). Thereafter, the crystals were examined for purity by liquid chromatography. As a result, the change in purity through the test was 0.1% or less under all those conditions.

[2] = Solubility measurement (solubility measuring method of The Japanese Pharmacopoeia); details: 37° C.

CNC(=O)c1cc2c(Oc3ccc(NC(=S)NC(=O)Cc4ccccc4)cc3F)ccnc2cc1OC.CS(=O)(=O)O [Example 1, mesylic acid salt of 4-(2-fluoro-4-(3-(2-phenylacetyl)thioureido)phenoxy)-7-methoxy-N-methylquinoline-6-carboxamide]
change in examinations by XRD and TG-DTA [1]: no marked change | change in purity through the test ([1]; all those conditions): ≤ 0.1% | Solubility, Taurocholic acid ([2]; 20-mM aqueous taurocholic acid solution): 0.12 mg/mL | Solubility, FeSSIF ([2]; FeSSIF): 0.011 mg/mL | Solubility, Dissolution-test second liquid ([2]; dissolution-test second liquid according to The Japanese Pharmacopoeia): 0.001 mg/mL | Solubility, Purified water ([2]; purified water): 0.035 mg/mL

From patent US10143688B2, “Mesylic acid salt of acylthiourea compound, crystal of the same, and process for producing these” (priority 2015, dated 2018)
